Reference: patent US9902752B2, “5-fluorouracil derivatives” (B. Braun Melsungen AG, priority 2012, dated 2018)
{19c} = modification given as compound (19c) in the publication; {25} = modification given as compound (25) in the publication; {Cy3} = Cy-3 fluorescent dye

What was measured:
[1] = system: HT-29 (human colon carcinoma) cell line; assay: Viability/survival of HT-29 cells (PrestoBlue); assay type: cell-based; conditions: HT-29, 10-80 μM, 24, 48 or 72 h; vs comparative compounds, 5-fluorouridine and 5-fluorouracil
Method: In vitro experiments were performed using HT-29 (human colon carcinoma) cell line (DSMZ, GmbH, Braunschweig, Germany). The cells were cultured in 90% RPMI 1640 supplemented with 10% fetal bovine serum (FBS), 100 U/ml penicillin, 0.1 mg/ml streptomycin. Cells were maintained at 37° C. in a humidified atmosphere of 5% CO2 and 95% air; the medium was changed every 48 h.
1×10^4 human HT-29 in 100 μl medium/well were seeded in 96-well plates (BD Falcon™, Becton Dickinson GmbH, Heidelberg, Germany). After 24 h, the medium was changed and different concentrations of 5-fluorouracil, 5-fluorouridin and 5-fluorouridin derivative molecules (10, 20, 40 or 80 μM) were tested. After 24, 48 or 72 h incubation, viability/survival was measured using PrestoBlue™ reagent (Invitrogen-Life Technologies GmbH, Darmstadt, Germany). PrestoBlue™ reagent is more sensible than alamarBlue®, which is a redox indicator of enzyme activity widely used in whole organism screening for viability/cytotoxicity (1-6). PrestoBlue™ was directly added to the cells into the culture medium at a final concentration of 10%. Thereafter the plates were returned to the incubator. 30 min, 1 h, 2 h, 3 h and 4 h after addition of PrestoBlue™ the optical density (OD) was measured at 570 nm and 600 nm (as reference) with a SUNRISE ELISA-reader (Tecan, Salzburg, Austria). […]

[2] = Lipophilicity as chromatographic mobility, RP-18 HPLC retention time; assay type: physicochemical; conditions: MeCN/0.1 M Et3NH+OAc− (35:65, v/v, pH 7.0)
Method: RP-18 HPLC was carried out on a 250×4 mm RP-18 column (Merck, Germany) on a Merck-Hitachi HPLC apparatus with one pump (Model 655A-12) connected with a proportioning valve, a variable wavelength monitor (Model 655 A), a controller (Model L-5000), and an integrator (Model D-2000). Solvent: MeCN/0.1 M Et3NH^+OAc^− (35:65, v/v, pH 7.0).
The lipophilicity of various 5-fluorouridine derivatives has been studied since the lipophilicity has inter alia an influence on the incorporation into oligo(2′-deoxynucleotides). The lipophilicity of the novel hydrophobic nucleoside derivatives has been studied in different by two ways: (i) log P values of the compounds were calculated (Table 4) and compared with those of the unmodified nucleoside 1a, (ii) the chromatographic mobilities of the compounds were measured in terms of retention times (tR in min) by RP-18 HPLC.

[3] = pKBH+ value of the nucleoside; assay type: physicochemical
[4] = 1N aq. HCl/MeCN, 1:1 (v/v); cited from earlier work
[5] = Acidic stability (hydrolysis) of the O-2′,3′-ketal group; assay type: physicochemical; conditions: 1N aqueous HCl/MeCN 1:1 (v/v), RP-18 HPLC, calculated graphically; read-out: half-life under acidic conditions
Method: Both, the acidic hydrolysis of the O-2′,3′-ketal moiety of the ester 28a as well as the chitosanase-catalyzed degradation of chitosan foil-bound 5-fluorouridine was measured. Acidic stability was determined by incubating compound 28a (2 mg) in 1N aqueous HCl/MeCN 1:1 (v/v), neutralization by Et3N and subsequent RP-18 HPLC analysis as described above (FIG. 12).
The faster migrating zone contains always pure 5-fluorouridine, the slower migrating zone the residual ketal 28a. The half-life value was calculated graphically from a plot of the peak integral of both, the residual ketals and 5-fluorouridine vs. reaction time (FIG. 13). Upon acidic hydrolysis only the nucleoside and no 5-fluorouracil were formed.

[6] = Bilayer insertion of lipophilic oligonucleotides (fluorescence scans); assay type: physicochemical; conditions: for incorporation into the artificial bilayer: brightness of the layers, 25 min incubation; for retention in the bilayer after perfusions: perfusions of 60 s each
Method: The incorporation of the oligonucleotides into artificial bilayers was performed at a lipid mixture of 1-palmitoyl-2-oleyl-sn-glycero-3-phosphoethanolamine (POPE) and 1-palmitoyl-2-oleyl-sn-glycero-3-phosphocholine (POPC) (8:2, w/w, 100 mg/ml of n-decane). For the preparation of the horizontal bilayers, planar slides (Ionovation GmbH, D-Osnabrück) were used. These slides contain chambers for cis- and trans compartments as well as electrode access (see FIG. 1). The main body of the slides contains of PTFE foil (thickness, 25 μm) with an aperture of ˜100 μm diameter. This foil separates the chamber into the cis- and trans compartments which are only connected by the aperture. After filling of the chamber with buffer (250 mM KCl, 10 mM MOPS/TRIS, pH 7), the cis- and trans compartments were linked with Ag/AgCl electrodes—embedded in agarose/3 M KCl). Then, a soln. of the POPC/POPE lipid mixture (0.2 μl) is applied onto the aperture of the PTFE foil using a Hamilton syringe (Hamilton, CH-Bonaduz). A small Faraday cage shields the bilayer and the electrodes from HF-electrical noise. Next, a bilayer is made-up automatically using a perfusion system (Bilayer Explorer V01, Ionovation GmbH, D-Osnabrück). The formation of a stable bilayer was monitored both, optically using a laser scanning microscope (Insight Cell 3D, Evotec Technologies GmbH, D-Hamburg) as well as electrically by capacity measurements. When a stable bilayer had been obtained (capacity, […]), the corresponding oligonucleotide soln. (50 nM, 4 μl) was injected into the cis compartment of the chip. During an incubation time of 25 min the intactness of the bilayer was electro-physiologically controlled using a headstage EPC 10 USB with a patch clamp amplifier (software: Patchmaster, HEKA Elektronik Dr. Schulze GmbH, D-Lambrecht). The optical pictures of fluorescence fluctuations were obtained with a confocal laser scanning microscope (Insight Cell 3D, Evotec Technologies GmbH, D-Hamburg), equipped with a He—Ne laser (543 nm), a 40× water-immersion objective (UApo 340, 40×, NA=1.15, Olympus, 3-Tokyo), and an Avalanche photodiode detector (SPCM-AQR-13-FC, Perkin-Elmer Optoelectronics, Fremont, USA). Fluorescence irradiation was obtained with a laser power of 200±5 μW. 2D and 3D scans were performed by scanning the confocal spot in XY direction with a rotating beam scanner and movement of the objective in Z direction. The movement in both directions was piezo controlled which allows a nano-meter precise positioning. For the 2D pictures (Z-scans, FIGS. 2 and 3) the confocal plane was moved in 100 nm steps. […]

[7] = Free diffusion times of oligonucleotides (without bilayer); assay type: physicochemical; conditions: diluted 50 nM oligomer solution
Method: From the fluorescence signals of single molecules which pass the excitation volume, the diffusion constants can be calculated. In order to determine the diffusion times of the fluorescent oligonucleotides within and near the bilayer, they were measured at five different positions above, below and within the layer. At each point five measurements for 30 s, each, were taken. In summary, each measuring protocol was as follows: (i) a reference scan of the stable (empty) bilayer; (ii) addition of the sample with 25 min of incubation, followed by a scan series; (iii) additional scan series, each after a 1., 2., and 3. perfusion (60 s, each).
The diffusion times (μs) of 41 and 42 were measured, both without and in the presence of an artificial bilayer. For the determination of the free diffusion times the corresponding oligomer solution (50 nM) was diluted so that in the confocal measuring volume (˜10^−15 l) only one fluorescent molecule was present. Each measurement was performed ten-fold for 30 s, each. In order to determine the diffusion times of the lipophilized oligonucleotides (41, 42) in the presence of a bilayer five measuring positions above, beneath and in the bilayer were chosen. This was necessary because the bilayer is floating within certain limits, which makes it difficult to target it most exactly (FIG. 5, measuring points 1-5). […]

[8] = Diffusion times of oligonucleotides in the presence of a lipid bilayer; assay type: physicochemical
Method: The incorporation of the oligonucleotides into artificial bilayers was performed at a lipid mixture of 1-palmitoyl-2-oleyl-sn-glycero-3-phosphoethanolamine (POPE) and 1-palmitoyl-2-oleyl-sn-glycero-3-phosphocholine (POPC) (8:2, w/w, 100 mg/ml of n-decane). For the preparation of the horizontal bilayers, planar slides (Ionovation GmbH, D-Osnabrück) were used. These slides contain chambers for cis- and trans compartments as well as electrode access (see FIG. 1). The main body of the slides contains of PTFE foil (thickness, 25 μm) with an aperture of ˜100 μm diameter. This foil separates the chamber into the cis- and trans compartments which are only connected by the aperture. After filling of the chamber with buffer (250 mM KCl, 10 mM MOPS/TRIS, pH 7), the cis- and trans compartments were linked with Ag/AgCl electrodes—embedded in agarose/3 M KCl). Then, a soln. of the POPC/POPE lipid mixture (0.2 μl) is applied onto the aperture of the PTFE foil using a Hamilton syringe (Hamilton, CH-Bonaduz). […] The formation of a stable bilayer was monitored both, optically using a laser scanning microscope (Insight Cell 3D, Evotec Technologies GmbH, D-Hamburg) as well as electrically by capacity measurements. […] The optical pictures of fluorescence fluctuations were obtained with a confocal laser scanning microscope (Insight Cell 3D, Evotec Technologies GmbH, D-Hamburg), equipped with a He—Ne laser (543 nm), a 40× water-immersion objective (UApo 340, 40×, NA=1.15, Olympus, 3-Tokyo), and an Avalanche photodiode detector (SPCM-AQR-13-FC, Perkin-Elmer Optoelectronics, Fremont, USA). Fluorescence irradiation was obtained with a laser power of 200±5 μW. […]
From the fluorescence signals of single molecules which pass the excitation volume, the diffusion constants can be calculated. In order to determine the diffusion times of the fluorescent oligonucleotides within and near the bilayer, they were measured at five different positions above, below and within the layer. […]
The diffusion times (μs) of 41 and 42 were measured, both without and in the presence of an artificial bilayer. […]

[9] = measuring point 3, after 1. perfusion

CC(C)=CCC/C(C)=C/CC/C(C)=C/Cn1c(=O)c(F)cn([C@@H]2O[C@H](CO)C3OC4(CCCCCCCCCCC4)OC32)c1=O (stereo partly drawn) [Compound 31a, 2′,3′-O-Cyclododecane-1,1-diyl-5-fluoro-3-[(2E,6E)-3,7,11-trimethyldodeca-2,6,10-trien-1-yl]uridine]
activity against carcinoma cells [1]: significant higher activity

O=c1[nH]c(=O)n([C@@H]2O[C@H](CO)[C@@H](O)[C@H]2O)cc1F [Compound 1a, 5-Fluorouridine, reference compound]
RP-18 HPLC tR [2]: 1 min
pKBH+ [3]: 8.0±0.1

CCCC1(CCC)OC2[C@@H](O1)[C@@H](CO)O[C@H]2n1cc(F)c(=O)[nH]c1=O (stereo partly drawn) [Compound 19b, 5-Fluoro-2,3′-O-(1-propylbutylidene)uridine]
acidic stability at the ketal group, T [4]: 130 min

CCOC(=O)CCC1(C)OC2C(O1)[C@@H](CO)O[C@H]2n1cc(F)c(=O)[nH]c1=O (stereo partly drawn) [Compound 28a]
half-life [5]: ~5 h

CC1(C)O[C@@H]2[C@H](O1)[C@@H](CO)O[C@H]2n1cc(F)c(=O)[nH]c1=O [Compound 19a, 5-Fluoro-1-((3aR,4R,6R,6aR)-6-(hydroxymethyl)-2,2-dimethyltetrahydrofuro[3,4-d][1,3]dioxol-4-yl)pyrimidine-2,4(1H,3H)-dione]
melting point: 196 to 197 °C

5′-d[(25)-(Cy-3)-TAG GTC AAT ACT] (DNA TAGGTCAATACT; DNA, 5' {25}-{Cy3}, backbone not given here) [Oligomer 41]
incorporation into the artificial bilayer [6]: successfully incorporated
retention in the bilayer after perfusions [6]: brightness of the layer decreases after two perfusions
Free diffusion time [7]: 279.67 ± 141.08 μs
Diffusion time in the presence of a bilayer [8, 9]: 33547 ± 16751, after 1. perfusion μs

5′-d[(19c)-(Cy-3)-TAG GTC AAT ACT]. (DNA TAGGTCAATACT; DNA, 5' {19c}-{Cy3}, backbone not given here) [Oligomer 42]
incorporation into the artificial bilayer [6]: better inserted
retention in the bilayer after perfusions [6]: do not lead to a significant removal
Free diffusion time [7]: 390.39 ± 249.05 μs
Diffusion time in the presence of a bilayer [8, 9]: 75952 ± 8201, after 1 perfusion μs
Diffusion time in the presence of a bilayer ([8]; measuring point 3, after 3. perfusion): 19891 ± 3266, after 3. perfusion μs
